This note sets out measurements from patent publication US9221809B2 (MERCK SHARP & DOHME CORP., priority 2011, dated 2015).

Where a name gives a salt, the structure may show the parent alone. Read-outs that look alike come from different tables or passages of the source.

The experiment addresses IRAK4 (Homo sapiens (Human), UniProt Q9NWZ3). As to the kind of experiment: IRAK4 kinase activity, IMAP fluorescence polarization assay. Type of experiment: biochemical. Particulars: 100 μM ATP. The method, boiled down: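 GST-tagged IRAK4 at 0.5 nM phosphorylates 100 nM fluorescent peptide substrate with 100 μM ATP in pH 7.2 Tris buffer containing MgCl2, DTT and Tween 20, 30 min at 25 °C. Reaction stopped with IMAP binding reagent; phosphorylation read as increased fluorescence polarization.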

The mark [1] stands for this setting: 0.5 nM GST tagged IRAK4, read-out: IRAK4 IC50.

Sequence of IRAK4 (Q9NWZ3 whole entry): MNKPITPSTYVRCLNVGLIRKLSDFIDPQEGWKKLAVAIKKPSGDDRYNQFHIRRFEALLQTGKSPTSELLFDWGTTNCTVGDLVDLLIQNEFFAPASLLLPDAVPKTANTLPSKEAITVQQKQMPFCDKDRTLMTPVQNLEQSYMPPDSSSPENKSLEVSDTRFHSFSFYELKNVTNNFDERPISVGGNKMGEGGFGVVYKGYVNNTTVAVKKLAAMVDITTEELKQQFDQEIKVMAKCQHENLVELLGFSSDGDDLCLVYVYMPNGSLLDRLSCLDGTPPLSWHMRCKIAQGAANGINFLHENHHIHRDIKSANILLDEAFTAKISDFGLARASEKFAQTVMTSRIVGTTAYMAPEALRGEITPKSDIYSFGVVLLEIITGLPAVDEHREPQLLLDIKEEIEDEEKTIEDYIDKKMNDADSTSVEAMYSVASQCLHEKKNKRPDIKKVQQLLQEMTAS

Turning to `O=c1[nH]c(N2CCC(n3ccnn3)CC2)nc(N[C@@H]2C[C@H](CO)[C@@H](O)[C@H]2O)c1-c1nc2ccccc2s1` [Example 67, 2-(4-(1H-1,2,3-triazol-1-yl)piperidin-1-yl)-5-(benzo[d]thiazol-2-yl)-6-((1R,2S,3R,4R)-2,3-dihydroxy-4-(hydroxymethyl)cyclopentylamino)pyrimidin-4(3H)-one], the half-maximal inhibitory concentration (IC50) (unit inferred, read-out: IRAK4 IC50) was determined as 11.8 nM. For `CC(C)C[C@H](CO)Nc1nc(N2CCOCC2)[nH]c(=O)c1-c1nc2ccccc2s1` [Example 266, (R)-5-(benzo[d]thiazol-2-yl)-6-(1-hydroxy-4-methylpentan-2-ylamino)-2-morpholinopyrimidin-4(3H)-one], the concentration for half-maximal inhibition (IC50) (read-out: IC50) is 2500 nM. In the case of `O=c1[nH]c(N2CCOCC2)nc(N[C@@H]2C[C@H](CO)[C@@H](O)[C@H]2O)c1-c1nc(-c2ccc(F)cc2)cs1` [Example 58, 6-(((1R,2S,3R,4R)-2,3-Dihydroxy-4-(hydroxymethyl)cyclopentyl)amino)-5-(4-(4-fluorophenyl)thiazol-2-yl)-2-morpholinopyrimidin-4(3H)-one.HCl], the IC50 under setting [1] came to 5.6 nM. Consider `CS(=O)(=O)c1cc(F)ccc1N1CCN(c2nc(N[C@@H]3CCCNC3)c(-c3nc4ccccc4s3)c(=O)[nH]2)CC1` [Example 150, (R)-5-(benzo[d]thiazol-2-yl)-2-(4-(4-fluoro-2-(methylsulfonyl)phenyl)piperazin-1-yl)-6-(piperidin-3-ylamino)pyrimidin-4(3H)-one], for which the IC50 (read-out: IRAK4 IC50) came to 14 nM. In the case of `O=c1[nH]c(N2CCOCC2)nc(NC2CCCCNC2)c1-c1nc2ccccc2s1` (stereo not shown) [Example 92, 6-(Azepan-3-ylamino)-5-(benzo[d]thiazol-2-yl)-2-morpholinopyrimidin-4(3H)-one.HCl], the IC50 under setting [1] worked out at 27 nM. On to `O=c1[nH]c(N[C@@H]2c3ccccc3C[C@@H]2O)nc(N[C@@H]2CCCNC2)c1-c1nc2ccccc2s1` [Example 299, 5-(1,3-benzothiazol-2-yl)-2-[[(1R,2S)-2-hydroxy-2,3-dihydro-1H-inden-1-yl]amino]-6-[[(3R)-piperidin-3-yl]amino]pyrimidin-4-ol formic acid], for which the 50% inhibitory concentration (IC50) (read-out: IC50) is 1200 nM. Still for that read-out and setting: as for `CCS(=O)(=O)N1CCC(c2nc(N[C@@H]3CCCNC3)c(-c3nc4ccccc4s3)c(=O)[nH]2)CC1` [Example 236], the figure is 550 nM; as for `NC(=O)CNc1nc(N2CCOCC2)[nH]c(=O)c1-c1nc2ccccc2s1` [Example 249, 2-[[5-(1,3-benzothiazol-2-yl)-2-(morpholin-4-yl)-6-oxo-1,6-dihydropyrimidin-4-yl]amino]acetamide], 3900 nM. As for `CC(C)(C)c1ccc2sc(-c3c(N[C@@H]4CCCNC4)nc(N4CCOCC4)[nH]c3=O)nc2c1` [Example 342, (R)-5-(5-tert-butylbenzo[d]thiazol-2-yl)-2-morpholino-6-(piperidin-3-ylamino)pyrimidin-4(3H)-one], under setting [1], the half-inhibitory concentration (IC50) came to 1300 nM. The same measure, in the same setting: as for `O=c1[nH]c(N2CCOCC2)nc(N[C@@H]2CCCNC2)c1-c1csc(-n2cccc2)n1` [Example 214, (R)-5-(2-(1H-pyrrol-1-yl)thiazol-4-yl)-2-morpholino-6-(piperidin-3-ylamino)pyrimidin-4(3H)-one], the figure is 12 nM.

For `O=c1[nH]c(N2C[C@H](F)[C@@H](F)C2)nc(N[C@@H]2CCCNC2)c1-c1ccc2ccccc2n1` [Example 175, 2-((3S,4S)-3,4-difluoropyrrolidin-1-yl)-6-((R)-piperidin-3-ylamino)-5-(quinolin-2-yl)pyrimidin-4(3H)-one], where the note is “read-out: IRAK4 IC50”, the IC50 amounted to 17 nM.

For the molecule `C[C@H]1C[C@@H](Nc2nc(N3CCOCC3)[nH]c(=O)c2-c2ccc3ccccc3n2)[C@H](O)[C@@H]1O` [Example 46, 6-((1R,2S,3R,4S)-2,3-Dihydroxy-4-methylcyclopentylamino)-2-morpholino-5-(quinolin-2-yl)pyrimidin-4(3H)-one.HCl], the half-inhibitory concentration (IC50) under setting [1] amounted to 5 nM.

Turning to `O=c1[nH]c(N2CCOCC2)nc(N[C@@H]2CCCNC2)c1-c1ccc2ccccc2n1` [Example 93, (R)-2-Morpholino-6-(piperidin-3-ylamino)-5-(quinolin-2-yl)pyrimidin-4(3H)-one.HCl], under setting [1], the 50% inhibitory concentration (IC50) is 26 nM. For the molecule `COC1CCN(c2nc(N[C@@H]3CCCNC3)c(-c3ccc4ccccc4n3)c(=O)[nH]2)C1` (stereo partly drawn) [Example 186, 2-(3-methoxypyrrolidin-1-yl)-6-((R)-piperidin-3-ylamino)-5-(quinolin-2-yl)pyrimidin-4(3H)-one], under “read-out: IRAK4 IC50”, the concentration for half-maximal inhibition (IC50) was found to be 26 nM.

In the case of `O=c1[nH]c(N2CCCC2)nc(N[C@@H]2CCCNC2)c1-c1nc2c(C3CC3)nccc2s1` [Example 118, (R)-5-(4-cyclopropylthiazolo[4,5-c]pyridin-2-yl)-6-(piperidin-3-ylamino)-2-(pyrrolidin-1-yl)pyrimidin-4(3H)-one.HCl], the concentration for half-maximal inhibition (IC50) under setting [1] worked out at 14 nM. The same measure, in the same setting: for `O=c1[nH]c(N2CCOCC2)nc(N[C@@H]2CCCNC2)c1-c1nc2c(C3CC3)nccc2s1` [Example 111, (R)-5-(4-cyclopropylthiazolo[4,5-c]pyridin-2-yl)-2-morpholino-6-(piperidin-3-ylamino)pyrimidin-4(3H)-one.HCl] the value was 9 nM. On to `O=c1[nH]c(N2CCOCC2)nc(NCCN2CCC(O)CC2)c1-c1ccc2ccccc2n1` [Example 282, 6-[[2-(4-hydroxypiperidin-1-yl)ethyl]amino]-2-(morpholin-4-yl)-5-(quinolin-2-yl)-3,4-dihydropyrimidin-4-one], for which the concentration for half-maximal inhibition (IC50) (read-out: IC50) stood at 2200 nM. With `O=c1[nH]c(N2CCN(c3cc(Cl)ccn3)CC2)nc(N[C@@H]2CCCNC2)c1-c1nc2ccccc2s1` [Example 145, (R)-5-(benzo[d]thiazol-2-yl)-2-(4-(4-chloropyridin-2-yl)piperazin-1-yl)-6-(piperidin-3-ylamino)pyrimidin-4(3H)-one], the 50% inhibitory concentration (IC50) (read-out: IRAK4 IC50) worked out at 9 nM. Turning to `O=c1[nH]c(N2CCOCC2)nc(N[C@@H]2CCCNC2)c1-c1nc(-c2ccc(OC(F)(F)F)cc2)cs1` [Example 103, (R)-2-morpholino-6-(piperidin-3-ylamino)-5-(4-(4-(trifluoromethoxy)phenyl)thiazol-2-yl)pyrimidin-4(3H)-one.HCl], under setting [1], the IC50 came out at 2250 nM. As for `O=C1C[C@H](Nc2nc(N[C@@H]3CCCNC3)c(-c3nc4ccccc4s3)c(=O)[nH]2)Cc2ccccc2N1` [Example 304], the IC50 (read-out: IC50) stood at 8900 nM. Regarding `O=c1[nH]c(NC2CCC2)nc(NC[C@H](O)CO)c1-c1nc2ccccc2s1` [Example 49, (S)-5-(Benzo[d]thiazol-2-yl)-2-(cyclobutylamino)-6-(2,3-dihydroxypropylamino)pyrimidin-4(3H)-one.HCl], the IC50 under setting [1] is 5330 nM.

Consider `O=c1[nH]c(N2CCCCC2)nc(N[C@@H]2C[C@H](CO)[C@@H](O)[C@H]2O)c1-c1nc(-c2ccc(F)cc2)cs1` [Example 59, 6-(((1R,2S,3R,4R)-2,3-Dihydroxy-4-(hydroxymethyl)cyclopentyl)amino)-5-(4-(4-fluorophenyl)thiazol-2-yl)-2-(piperidin-1-yl)pyrimidin-4(3H)-one HCl], for which the IC50 under setting [1] came to 22.5 nM. Same read-out and setting: as for `O=c1[nH]c(N2CCOCC2)nc(N[C@@H]2CCCNC2)c1-c1nc2cc(F)ccc2s1` [Example 97, (R)-5-(5-Fluorobenzo[d]thiazol-2-yl)-2-morpholino-6-(piperidin-3-ylamino)pyrimidin-4(3H)-one.HCl], the figure is 8.4 nM. For the molecule `COc1ccc(OC)c(N2CCN(c3nc(N[C@@H]4CCCNC4)c(-c4nc5ccccc5s4)c(=O)[nH]3)CC2)c1` [Example 161, (R)-5-(benzo[d]thiazol-2-yl)-2-(4-(2,5-dimethoxyphenyl)piperazin-1-yl)-6-(piperidin-3-ylamino)pyrimidin-4(3H)-one], the IC50 (read-out: IRAK4 IC50) turned out to be 14 nM.

As to `CC(=O)NCCNc1nc(N2CCOCC2)[nH]c(=O)c1-c1nc2ccccc2s1` [Example 261, N-(2-[[5-(1,3-benzothiazol-2-yl)-2-(morpholin-4-yl)-6-oxo-1,6-dihydropyrimidin-4-yl]amino]ethyl)acetamide], the IC50 (read-out: IC50) turned out to be 8200 nM. For `O=c1[nH]c(N2CCN(c3cccc(C(F)(F)F)c3)CC2)nc(N[C@@H]2CCCNC2)c1-c1nc2ccccc2s1` [Example 152, (R)-5-(benzo[d]thiazol-2-yl)-6-(piperidin-3-ylamino)-2-(4-(3-(trifluoromethyl)phenyl)piperazin-1-yl)pyrimidin-4(3H)-one], the half-inhibitory concentration (IC50) (read-out: IRAK4 IC50) was 42 nM. Take `O=c1[nH]c(Nc2cncnc2)nc(N[C@@H]2C[C@H](CO)[C@@H](O)[C@H]2O)c1-c1nc2ccccc2s1` [Example 51, 5-(Benzo[d]thiazol-2-yl)-6-(((1R,2S,3R,4R)-2,3-dihydroxy-4-(hydroxymethyl)cyclopentyl)amino)-2-(pyrimidin-5-ylamino)pyrimidin-4(3H)-one.HCl]: under setting [1], the half-inhibitory concentration (IC50) amounted to 345 nM.

Regarding `O=c1[nH]c(NC2CCC2)nc(N[C@@H]2C[C@H](CO)[C@@H](O)[C@H]2O)c1-c1ccccn1` [Example 21, 2-(Cyclobutylamino)-6-((1R,2S,3R,4R)-2,3-dihydroxy-4-(hydroxymethyl)cyclopentylamino)-5-(pyridin-2-yl)pyrimidin-4(3H)-one.HCl], the half-inhibitory concentration (IC50) under setting [1] amounted to 590 nM.

Turning to `O=c1[nH]c(N2CCOCC2)nc(N[C@@H]2CCCNC2)c1-c1nc2cnccc2s1` [Example 113, (R)-2-morpholino-6-(piperidin-3-ylamino)-5-(thiazolo[4,5-c]pyridin-2-yl)pyrimidin-4(3H)-one.HCl], the IC50 under setting [1] turned out to be 12 nM.

Consider `O=c1[nH]c(N2CCOCC2)nc(NCC(O)CO)c1-c1ccc2ccccc2n1` (stereo not shown) [Example 281, 6-[(2,3-dihydroxypropyl)amino]-2-(morpholin-4-yl)-5-(quinolin-2-yl)-3,4-dihydropyrimidin-4-one], for which, for the setting “read-out: IC50”, the concentration for half-maximal inhibition (IC50) came to 1700 nM. For the molecule `O=c1[nH]c(N2CCN(c3ccc(Cl)cn3)CC2)nc(N[C@@H]2CCCNC2)c1-c1nc2ccccc2s1` [Example 144, (R)-5-(benzo[d]thiazol-2-yl)-2-(4-(5-chloropyridin-2-yl)piperazin-1-yl)-6-(piperidin-3-ylamino)pyrimidin-4(3H)-one], the IC50 (read-out: IRAK4 IC50) is 8 nM.
